According to US20220249576A1 (priority 2021, published 2022):

Columns and labels:
[1] = test system: Aspergillus endosomal development; conditions: previously observed; cited from earlier work
[2] = test system: A. flavus; format: cell-based, Aspergillus flavus

## CCCCC[C@@H](O)[C@H]1C(=O)O[C@H](C)[C@@H](O)/C=C/C=C/C=C/C=C/C=C(\C)[C@@H](O)C[C@H](O)C[C@H](O)C[C@H](O)C[C@H](O)C[C@H](O)C[C@@H]1O [filipin]
[1]
  minimal inhibitory concentration (MIC) for disruption of Aspergillus endosomal development: 3 µM

## C[C@@H]1C/C=C/C=C/C=C/C=C/[C@H](O[C@@H]2O[C@H](C)[C@@H](O)[C@H](N)[C@@H]2O)C[C@@H]2O[C@](O)(C[C@@H](O)C[C@H]3O[C@@H]3/C=C/C(=O)O1)C[C@H](O)[C@H]2C(=O)O [natamycin]
[2]
  aflatoxin levels compared to the filipin treated samples: significantly greater increase
  aflatoxin production compared to untreated control (A. flavus + the exemplary composition): increase aflatoxin production
[1]
  minimal inhibitory concentration (MIC) for disruption of Aspergillus endosomal development: 6 µM
